Laboratory results reported in patent US20130210057A1, “USE OF LABEL-FREE BIOSENSORS TO UNDERSTAND AND IDENTIFY TREATMENT FOR CANCER” (CORNING INCORPORATED, priority 2012, published 2013).
Entries after “also recorded” stand apart in the source; their conditions may differ. Like-named read-outs stand apart in the source and are kept apart here. Ends that are not written are not given here.

Tests used:
[1] = test system: HCT116 parental cell line; assay: Label-free RWG biosensor DMR assay; type: cell-based, human; settings: for kinase inhibitor drug-induced DMR signal: 16 μM
Source text: (§1) EPIC® beta version wavelength interrogation system (Corning Inc., NY) was used for whole cell sensing. This system consists of a temperature-control unit, an optical detection unit, and an on-board liquid handling unit with robotics. The detection unit is centered on integrated fiber optics, and enables kinetic measures of cellular responses with a time interval of ˜15 sec. Also EPIC® commercial systems were used, with a liquid handler accessory attached to EPIC® reader system. Also, an Epic® RWG imager can be used.
(§2) The resonant waveguide grating (RWG) biosensor is capable of detecting minute changes in local index of refraction near the sensor surface and the waveguide thin film having gratings provide a cell culture surface. Since the local index of refraction within a cell is a function of density and its distribution of biomass (e.g., proteins, molecular complexes), the biosensor exploits its evanescent wave to non-invasively detect ligand-induced Dynamic Mass Redistribution (DMR) in native cells. When a cell is stimulated, it responds. That response is a redistribution of biomass in the cell. Upon stimulation, proteins, protein complexes, and/or organelles in the cells move. The evanescent wave extends into the cells and exponentially decays over distance, leading to a characteristic sensing depth of ˜150 nm. Any optical response mediated through receptor activation only represents an average over the portion of the cell that the evanescent wave is sampling. The aggregation of many cellular events downstream to the receptor activation leads to a DMR signal having characteristic kinetics and amplitudes.
(§3) All assays were carried out at a controlled temperature (28° C.). At least two independent sets of experiments, each with at least three replicates, were performed.

[2] = test system: HCT116-PTEN Null cell line; assay: Label-free RWG biosensor DMR assay; type: cell-based, human; settings: for sensitivity of kinase inhibitor drug-induced DMR to PTEN deletion / kinase inhibitor drug-induced DMR signal: 16 μM; for sensitivity of kinase inhibitor drug-induced DMR to PTEN deletion: PTEN null vs parental; for kinase inhibitor drug-induced DMR signal: HCT116-PTEN null
Source text: as §1, §2, §3

HCT116 parental cells [3] = assay: cAMP-Glo assay; type: cell-based, human; settings: 15 minutes incubation
Procedure: (§4) Cells were cultured in the McCoy's 5a complete growth medium overnight. The next day cAMP-Glo assay was performed according to manufacturer's instruction (Promega, Cat# V1502). Briefly, cell culture medium was removed by flipping the plate. […] Luminescence was measured using Tecan Salim II plate reader.
(§5) To screen endogenous receptors and their coupled signaling pathways, we first assembled a GPCR agonist focused library (Table 1). The library consists of 120 GPCR agonists covering over 150 known GPCRs, based on their known pharmacology including polypharmacology. For small molecule chemical agonists, the dose used was 10 micromolar. For peptide agonists, the dose used was 1 micromolar. For lipid agonists, the dose used was also 1 micromolar. For both peptides and lipids, these agonists were suspended in a solution containing 0.05% bovine […] to increase their stability.
(§6) cAMP assays were employed to investigate endogenous Gs-coupled receptors. FIG. 2 is a graph illustrating cAMP accumulation induced by GPCR agonists. The percentage of cAMP level after normalized to the forskolin-induced cAMP increase was plotted as a function of GPCR agonists. PCT116 parental (squares) was compared with HCT116-PTEN Null (diamonds) cell line.

HCT116 PTEN null cells [4] = assay: cAMP-Glo assay; type: cell-based, human; settings: 15 minutes incubation
Procedure: as §4, §5, §6

[5] = test system: IGF1-induced DMR in HCT116 parental cell line; assay: DMR reporter assay: modulation of IGF1-induced DMR by kinase inhibitor pretreatment; settings: 2 nM IGF1; for alteration of the late response of the IGF1 DMR (signal at 50 min poststimulation): about 1 hr pretreatment at different doses; for impact on the early P-DMR amplitude of the IGF1 DMR: about 1 hr pretreatment
[6] = test system: IGF1-induced DMR in HCT116-PTEN Null cell line; assay: as above; settings: 2 nM IGF1; for alteration of the late response of the IGF1 DMR (signal at 50 min poststimulation) / impact on the early P-DMR amplitude of the IGF1 DMR: HCT116-PTEN Null; for alteration of the late response of the IGF1 DMR (signal at 50 min poststimulation): about 1 hr pretreatment at different doses; for impact on the early P-DMR amplitude of the IGF1 DMR / potency to increase the late IGF1 response, PTEN-deleted vs parental cell line: about 1 hr pretreatment
HCT116 parental cells [7] = assay: Calcium flux assay (FLUO-4, FDSS/FLIPR); type: cell-based, human; settings: small molecule agonists 10 micromolar, peptide and lipid agonists 1 micromolar
Source text: as §5

HCT116 PTEN null cells [8] = assay: Calcium flux assay (FLUO-4, FDSS/FLIPR); type: cell-based, human; settings: small molecule agonists 10 micromolar, peptide and lipid agonists 1 micromolar
Source text: as §5

IGF1: insulin growth factor-1 (IGF1)
agonist-induced DMR signal ([1]; HCT116 parental, untreated, 10 μM agonist (EGF, IGF1 1 μM)): robust DMR signal
agonist DMR in PTEN deleted cell line compared to parental cell line (sensitivity to PTEN deletion) ([2]; 10 μM agonist (EGF, IGF1 1 μM)): clear effects; also recorded: greater sensitivity
agonist-induced DMR signal ([2]; HCT116-PTEN Null, untreated, 10 μM agonist (EGF, IGF1 1 μM)): robust DMR signal

EGF: epidermal growth factor (EGF) (NSDSECPLSHDGYCLHDGVCMYIEALDKYACNCVVGYIGERCQYRDLKWWELR; Epidermal growth factor; UniProt P01133 971-1023, looked up)
agonist DMR in PTEN deleted cell line compared to parental cell line (sensitivity to PTEN deletion) ([2]; 10 μM agonist (EGF, IGF1 1 μM)): insensitive

C=C[C@@]1(C)CC(=O)[C@]2(O)[C@@]3(C)[C@@H](O)CCC(C)(C)[C@@H]3[C@H](O)[C@H](OC(C)=O)[C@@]2(C)O1 [forskolin]
DMR signal amplitude ([1]; HCT116 parental, GPCR agonist library profiling, 3-45 min poststimulation): greater than 80 picometer
DMR signal amplitude ([2]; HCT116-PTEN Null, GPCR agonist library profiling, 3-45 min poststimulation): greater than 80 picometer

CNC[C@H](O)c1ccc(O)c(O)c1 [epinephrine, (−)epinephrine]
effect of pertussis toxin (PTx) pretreatment on the agonist DMR [1]: little effect
receptor / signaling pathway activated (pathway deconvolution of DMR with toxins) [1]: primarily activates endogenous Gs-coupled beta1-adrenergic receptor
agonist DMR in PTEN deleted cell line compared to parental cell line (sensitivity to PTEN deletion) [2]: greatly differed
effect of pertussis toxin (PTx) pretreatment on the agonist DMR [2]: little effect
receptor / signaling pathway activated (pathway deconvolution of DMR with toxins) [2]: primarily activates endogenous Gs-coupled beta1-adrenergic receptor

CCNC(=O)[C@H]1O[C@@H](n2cnc3c(N)nc(NCCc4ccc(CCC(=O)O)cc4)nc32)[C@H](O)[C@@H]1O [CGS21680]
cAMP accumulation (normalized to forskolin-induced cAMP increase) (HCT116 parental cells [3]): detectable cAMP accumulation
cAMP accumulation (normalized to forskolin-induced cAMP increase) (HCT116 PTEN null cells [4]): detectable cAMP accumulation

Vasoactive intestinal peptide (HSDAVFTDNYTRLRKQMAVKKYLNSILN; ends and bridges not checked; UniProt P01282 125-152, looked up) [VIP]
cAMP accumulation (normalized to forskolin-induced cAMP increase) (HCT116 parental cells [3]): detectable cAMP accumulation
cAMP accumulation (normalized to forskolin-induced cAMP increase) (HCT116 PTEN null cells [4]): detectable cAMP accumulation

Cc1cn(-c2cc(NC(=O)c3ccc(C)c(Nc4nccc(-c5cccnc5)n4)c3)cc(C(F)(F)F)c2)cn1 [nilotinib]
sensitivity of kinase inhibitor drug-induced DMR to PTEN deletion [2]: sensitive

Calcitonin (CGNLSTCMLGTYTQDFNKFHTFPQTAIGVGAP; ends and bridges not checked; cysteine pairing not given here; UniProt P01258 85-116, looked up) [peptide agonist of calcitonin receptor]
cAMP accumulation (normalized to forskolin-induced cAMP increase) (HCT116 parental cells [3]): detectable cAMP accumulation
cAMP accumulation (normalized to forskolin-induced cAMP increase) (HCT116 PTEN null cells [4]): detectable cAMP accumulation

C#Cc1cccc(Nc2ncnc3cc(OCCOC)c(OCCOC)cc23)c1 [erlotinib]
alteration of the late response of the IGF1 DMR (signal at 50 min poststimulation) [5]: increased in the dose-dependent manner
impact on the early P-DMR amplitude of the IGF1 DMR [5]: little impact
kinase inhibitor drug-induced DMR signal ([1]; HCT116 parental): very small DMR signals
kinase inhibitor drug-induced DMR signal [2]: very small DMR signals
alteration of the late response of the IGF1 DMR (signal at 50 min poststimulation) [6]: increased in the dose-dependent manner
impact on the early P-DMR amplitude of the IGF1 DMR [6]: little impact
potency to increase the late IGF1 response, PTEN-deleted vs parental cell line [6]: lower

CCCCC[C@H](O)/C=C/[C@H]1[C@H](O)CC(=O)[C@@H]1C/C=C\CCCC(=O)O [PGE2, Peostaglandin E2]
cAMP accumulation (normalized to forskolin-induced cAMP increase) (HCT116 parental cells [3]): detectable cAMP accumulation
cAMP accumulation (normalized to forskolin-induced cAMP increase) (HCT116 PTEN null cells [4]): detectable cAMP accumulation

Nc1ncnc2c1ncn2[C@@H]1O[C@H](CO)[C@@H](O)[C@H]1O [adenosine, Adenosine]
effect of cholera toxin (CTx) pretreatment on the agonist DMR [1]: almost completely suppressed
receptor / signaling pathway activated (pathway deconvolution of DMR with toxins) ([1]; HCT116 parental, 10 μM agonist): primarily activates endogenous Gs-coupled adenosine A2B receptors
effect of pertussis toxin (PTx) pretreatment on the agonist DMR ([1]; HCT116 parental, PTX 100 ng/ml overnight, 10 μM agonist): only accelerated
effect of cholera toxin (CTx) pretreatment on the agonist DMR [2]: almost completely suppressed
agonist DMR in PTEN deleted cell line compared to parental cell line (sensitivity to PTEN deletion) ([2]; 10 μM agonist (EGF, IGF1 1 μM)): greatly different
receptor / signaling pathway activated (pathway deconvolution of DMR with toxins) ([2]; HCT116-PTEN Null, 10 μM agonist): primarily activates endogenous Gs-coupled adenosine A2B receptors
effect of pertussis toxin (PTx) pretreatment on the agonist DMR ([2]; HCT116-PTEN Null, PTX 100 ng/ml overnight, 10 μM agonist): only accelerated

Cc1ccc(NC(=O)c2ccc(CN3CCN(C)CC3)cc2)cc1Nc1nccc(-c2cccnc2)n1 [imatinib]
alteration of the late response of the IGF1 DMR (signal at 50 min poststimulation) [5]: dose-dependently increased
sensitivity of kinase inhibitor drug-induced DMR to PTEN deletion [2]: sensitive; also recorded: great sensitivity

COc1cc2ncnc(Nc3ccc(F)c(Cl)c3)c2cc1OCCCN1CCOCC1 [gefitinib]
alteration of the late response of the IGF1 DMR (signal at 50 min poststimulation) [5]: increased in the dose-dependent manner
impact on the early P-DMR amplitude of the IGF1 DMR [5]: little impact
alteration of the late response of the IGF1 DMR (signal at 50 min poststimulation) [6]: increased in the dose-dependent manner
impact on the early P-DMR amplitude of the IGF1 DMR [6]: little impact
potency to increase the late IGF1 response, PTEN-deleted vs parental cell line [6]: lower

CO[C@H]1C[C@@H]2CC[C@@H](C)[C@@](O)(O2)C(=O)C(=O)N2CCCC[C@H]2C(=O)O[C@H]([C@H](C)C[C@@H]2CC[C@@H](OCCO)[C@H](OC)C2)CC(=O)[C@H](C)/C=C(\C)[C@@H](O)[C@@H](OC)C(=O)[C@H](C)C[C@H](C)/C=C/C=C/C=C/1C [everolimus]
kinase inhibitor drug-induced DMR signal ([1]; HCT116 parental): detectable DMR
sensitivity of kinase inhibitor drug-induced DMR to PTEN deletion [2]: suppressed or decreased the kinetics

O=c1ccn([C@@H]2O[C@H](COP(=O)(O)OP(=O)(O)O)[C@@H](O)[C@H]2O)c(=O)[nH]1 [UDP]
Ca^2+ mobilization (fold increase in fluorescence, FLIPR) (HCT116 parental cells [7]): robust Ca^2+ mobilization
Ca^2+ mobilization (fold increase in fluorescence, FLIPR) (HCT116 PTEN null cells [8]): robust Ca^2+ mobilization

Adrenomedulin (YRQSMNNFQGLRSFGCRFGTCTVQKLAHQIYQFTDKDKDNVAPRSKISPQGY; ends and bridges not checked; cysteine pairing not given here; UniProt P35318 95-146, looked up) [peptide agonist of adrenomedulin receptor]
cAMP accumulation (normalized to forskolin-induced cAMP increase) (HCT116 parental cells [3]): detectable cAMP accumulation
cAMP accumulation (normalized to forskolin-induced cAMP increase) (HCT116 PTEN null cells [4]): detectable cAMP accumulation

CO[C@H]1C[C@@H]2CC[C@@H](C)[C@@](O)(O2)C(=O)C(=O)N2CCCC[C@H]2C(=O)O[C@H]([C@H](C)C[C@@H]2CC[C@@H](OC(=O)C(C)(CO)CO)[C@H](OC)C2)CC(=O)[C@H](C)/C=C(\C)[C@@H](O)[C@@H](OC)C(=O)[C@H](C)C[C@H](C)/C=C/C=C/C=C/1C [temsirolimus]
kinase inhibitor drug-induced DMR signal ([1]; HCT116 parental): detectable DMR
sensitivity of kinase inhibitor drug-induced DMR to PTEN deletion [2]: suppressed or decreased the kinetics

CS(=O)(=O)CCNCc1ccc(-c2ccc3ncnc(Nc4ccc(OCc5cccc(F)c5)c(Cl)c4)c3c2)o1 [lapatinib]
kinase inhibitor drug-induced DMR signal ([1]; HCT116 parental): did not result in any detectable DMR
kinase inhibitor drug-induced DMR signal [2]: did not result in any detectable DMR

CNC(=O)c1cc(Oc2ccc(NC(=O)Nc3ccc(Cl)c(C(F)(F)F)c3)cc2)ccn1 [sorafenib]
kinase inhibitor drug-induced DMR signal ([1]; HCT116 parental): did not result in any detectable DMR
kinase inhibitor drug-induced DMR signal [2]: did not result in any detectable DMR
